SMILES strings stand for the structures. Where “and” joins values, the source holds several entries; their conditions need not be identical. Equal values may be shown once. Read-outs that look alike come from different tables or passages of the source.

In the assay the target is T1, gp130 extracellular domain (recombinant gp130-Fc-HA) (Homo sapiens, UniProt P40189).
T1 construct: purified gp130 (amino residue 18-615); made in house; host or cells: HEK293T (plasmid from Dr. John J. Krolewski)
T1 sequence (P40189 18-615): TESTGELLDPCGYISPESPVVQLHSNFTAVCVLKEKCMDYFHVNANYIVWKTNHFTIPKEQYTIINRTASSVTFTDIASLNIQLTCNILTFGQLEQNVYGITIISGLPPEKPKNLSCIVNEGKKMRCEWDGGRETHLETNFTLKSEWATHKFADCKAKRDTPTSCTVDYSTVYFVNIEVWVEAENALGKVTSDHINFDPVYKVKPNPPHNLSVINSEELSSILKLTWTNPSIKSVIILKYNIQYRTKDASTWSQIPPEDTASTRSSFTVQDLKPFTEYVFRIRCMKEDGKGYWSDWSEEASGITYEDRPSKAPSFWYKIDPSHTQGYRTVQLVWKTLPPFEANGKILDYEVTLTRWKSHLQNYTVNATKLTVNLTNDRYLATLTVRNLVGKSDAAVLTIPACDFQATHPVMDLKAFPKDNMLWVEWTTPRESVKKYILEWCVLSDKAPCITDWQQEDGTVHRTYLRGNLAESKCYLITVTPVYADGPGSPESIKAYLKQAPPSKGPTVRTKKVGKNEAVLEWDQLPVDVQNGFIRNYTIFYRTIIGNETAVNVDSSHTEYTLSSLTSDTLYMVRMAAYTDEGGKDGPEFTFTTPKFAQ
The assay is described as follows: Surface plasmon resonance direct binding to gp130-Fc-HA. The method, then:
HEK293T cells were grown in media containing DMEM+10% fetal bovine serum (FBS),100 U/ml penicillin and […] streptomycin (Invitrogen) in a humidified 37° C. incubator with 5% CO2. Plasmid DNA expressing gp130-Fc-HA was transfected in the form of calcium phosphate precipitate into HEK293T cells (ten T75 flasks containing 5.5×10^6 cells). The supernatant was harvested sixty hours post transfection and centrifuged to remove residual cells and adjusted to pH 8.0. The supernatant was passed through a 0.45 μm filter. The gp130-Fc-HA tagged protein was immunoprecipitated using anti-HA affinity matrix (Roche Applied Bioscience).A one milliliter column containing anti-HA affinity matrix was equilibrated with 20 mM Tris-HCl, 0.1M NaCl, 0.1 mM EDTA (pH 8.0). The supernatant was applied to the equilibrated column and the column was washed successively with 20 mM Tris-HCl, 1M NaCl (pH 8.0). Bound protein was eluted with HA peptide dissolved in equilibration buffer. The column was regenerated with 0.1 M glycine (pH 2.0). Fractions containing recombinant protein were pooled, dialyzed against HBS buffer [10 mM HEPES (pH 7.4), 0.15 M NaCl, 3 mM EDTA, 0.005% P20] and concentrated by Centricon 30 (Amicon) centrifugation. Protein concentration was determined using Bradford protein assay reagent (Pierce), with bovine serum albumin (BSA, Fisher Scientific) as a standard. The purified recombinant gp130 protein was analyzed using SDS-PAGE and immunoblotting.
Surface plasmon resonance (SPR) analysis was performed using BIAcore T100. Recombinant gp130-Fc-HA was cross-linked to the flow cell on a carboxymethylated dextran matrix of a CM5 sensor chip (BIAcore) using standard amino group coupling methods according to the manufacturer's instructions. Sodium acetate (10 mM, pH 3.5) gave the best immobilization of the protein on the chip surface and unreactive groups on the chip were blocked by ethanolamine according to the manufacturer's instructions. Approximately 5000 resonance units (RU) of gp130-Fc-HA were cross-linked to the flow cell. HBS+1% DMSO were used in all buffers (running and sample) to avoid background response due to differences in buffer refractive index. For the equilibrium analysis, various concentrations of MDL-A, 1, and 2 were injected for a period of 2 min at a flow rate of 30 μl/min, in series, into flow cells containing covalently bound gp130-fc-HA and reference flow cell. Bound ligand (MDL-A, 1, and 2) in each assay was removed by passing 10 mM glycine (pH 2.2) over the chip surface. Biacore T100 Evaluation 2.0 was used for all interaction analyses. The steady-state equilibrium response (RUeq) was determined from the reference-subtracted sensogram. The kinetics parameter was calculated according to a 1:1 Langmuir binding model (A+B ? AB) by direct fitting of ligand binding sensor grams at multiple concentrations. The dissociation equilibrium constant is defined as dissociation constant (KD)=dissociation rate constant (kd)/association rate constant (ka). KD was determined by scattered analysis of equilibrium-state data obtained at different concentrations of analogues.
To examine the direct binding and calculation of equilibrium dissociation constant (KD) of MDL-A analogues with gp130 extracellular domain, surface plasmon resonance analysis was done. Protein was covalently cross linked to the dextran matrix of the biosensor chip CM5. Successively, various concentrations of MDL-A and MDL-A analogues were injected into the flow cells containing bound protein and no protein (reference). Interactions were monitored in real time and KD values were calculated by reference-substrated sensogram.
To examine the direct binding and calculate the equilibrium dissociation constant (KD) of MDL-A analogues with gp130 extracellular domain, surface plasmon resonance analysis was performed. Surface plasmon resonance (SPR) analysis was performed using a BIAcore T100. […]
In general terms: SPR reads the build-up and loss of mass on a sensor chip optically.

For orientation: Kd means the equilibrium constant for the complex coming apart. For the compound `CCCCC1=C(C)C(=O)[C@@](C)(CN2c3ccccc3[C@]3(O)CCO[C@H]23)C1=O` [MDL-A, (+)-Madindoline A, reference compound], the Kd was 288 µM (gp130 extracellular domain, Biacore evaluation software 2.0, read-out: KD); ~300 µM and ~290 µM (values in running text and figure legend, read-out: dissociation constant (KD)).

These data come from patent US20140315956A1, “SMALL MOLECULE INHIBITORS OF IL-6 AND USES THEREOF” (NATIONWIDE CHILDREN'S HOSPITAL, priority 2011, published 2014).
